Source: PubChem BioAssay AID248 (DTP/NCI, 2004)
Several values for one entry are separate records, joined by “and”; a condition that tells them apart may be missing. Equal entries are not always repeated. Toxic doses and inconclusive results are not listed. No stated cut-off is given here; in the data, active means T/C of 150% or more; inactive means T/C below 125%.

Test system: L1210 leukemia ip in BDF1 mice, survival T/C
Assay: NCI In Vivo Anticancer Drug Screen. Data for tumor model L1210 Leukemia (intraperitoneal) in B6D2F1 (BDF1) mice
Details: endpoint: mean survival time, higher = longer survival
Procedure, shortened: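 Survival endpoint. Drug-treated group vs vehicle group, expressed as T divided by C. Tumor passaged by transplantation.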

[1] = dose: 100.0 mg/kg/injection, schedule: Q01DX009 (ip), vehicle: Klucel (hydroxypropylcellulose) (HPC)
[2] = dose: 100.0 mg/kg/injection, schedule: Q04DX003 (ip), vehicle: Klucel (hydroxypropylcellulose) (HPC)
[3] = dose: 200.0 mg/kg/injection, schedule: Q01DX009 (ip), vehicle: Klucel (hydroxypropylcellulose) (HPC)
[4] = dose: 200.0 mg/kg/injection, schedule: Q04DX003 (ip), vehicle: Klucel (hydroxypropylcellulose) (HPC)
[5] = dose: 400.0 mg/kg/injection, schedule: Q01DX009 (ip), vehicle: Klucel (hydroxypropylcellulose) (HPC)
[6] = dose: 400.0 mg/kg/injection, schedule: Q04DX003 (ip), vehicle: Klucel (hydroxypropylcellulose) (HPC)
[7] = dose: 50.0 mg/kg/injection, schedule: Q04DX002 (ip), vehicle: Klucel (hydroxypropylcellulose) (HPC)
[8] = dose: 100.0 mg/kg/injection, schedule: Q04DX002 (ip), vehicle: Klucel (hydroxypropylcellulose) (HPC)
[9] = dose: 100.0 mg/kg/injection, schedule: Q01DX001 (ip), vehicle: Klucel (hydroxypropylcellulose) (HPC)
[10] = dose: 200.0 mg/kg/injection, schedule: Q01DX001 (ip), vehicle: Klucel (hydroxypropylcellulose) (HPC)
[11] = dose: 400.0 mg/kg/injection, schedule: Q01DX001 (ip), vehicle: Klucel (hydroxypropylcellulose) (HPC)
[12] = dose: 100.0 mg/kg/injection, schedule: Q01DX009 (ip), vehicle: saline with Tween-80
[13] = dose: 50.0 mg/kg/injection, schedule: Q01DX001 (ip), vehicle: saline
[14] = dose: 100.0 mg/kg/injection, schedule: Q01DX001 (ip), vehicle: saline
[15] = dose: 200.0 mg/kg/injection, schedule: Q01DX001 (ip), vehicle: saline
[16] = dose: 400.0 mg/kg/injection, schedule: Q01DX001 (ip), vehicle: saline

Measured: T/C

O=C(NCCC[P+](c1ccccc1)(c1ccccc1)c1ccccc1)OCc1ccccc1
inactive: dose: 12.5 mg/kg/injection, schedule: Q01DX009 (ip), vehicle: carboxymethylcellulose (CMC) 101 % of control and 120 % of control | dose: 12.5 mg/kg/injection, schedule: Q04DX002 (ip), vehicle: carboxymethylcellulose (CMC) 103 % of control | dose: 25.0 mg/kg/injection, schedule: Q01DX001 (ip), vehicle: carboxymethylcellulose (CMC) 87 % of control and 91 % of control | dose: 25.0 mg/kg/injection, schedule: Q01DX009 (ip), vehicle: carboxymethylcellulose (CMC) 103 % of control | dose: 25.0 mg/kg/injection, schedule: Q04DX002 (ip), vehicle: carboxymethylcellulose (CMC) 100 % of control and 91 % of control | dose: 25.0 mg/kg/injection, schedule: Q04DX003 (ip), vehicle: carboxymethylcellulose (CMC) 97 % of control and 98 % of control | dose: 50.0 mg/kg/injection, schedule: Q01DX001 (ip), vehicle: carboxymethylcellulose (CMC) 95 % of control and 104 % of control | dose: 50.0 mg/kg/injection, schedule: Q04DX002 (ip), vehicle: carboxymethylcellulose (CMC) 100 % of control | dose: 50.0 mg/kg/injection, schedule: Q04DX003 (ip), vehicle: carboxymethylcellulose (CMC) 97 % of control and 100 % of control

O=[N+]([O-])c1ccc(Oc2cccc(C(F)(F)F)c2)nc1
inactive: [1] 101 % of control | [2] 101 % of control | [3] 103 % of control | [4] 95 % of control | [5] 107 % of control | [6] 101 % of control

COc1ccccc1NC(=O)Nc1ccccc1C
inactive: [1] 96 % of control | [2] 94 % of control | [3] 89 % of control | [4] 100 % of control | [5] 94 % of control | [6] 90 % of control

Cc1ccccc1CC#N
inactive: dose: 6.25 mg/kg/injection, schedule: Q01DX009 (ip), vehicle: saline 108 % of control | dose: 12.5 mg/kg/injection, schedule: Q01DX009 (ip), vehicle: saline 108 % of control | dose: 25.0 mg/kg/injection, schedule: Q01DX009 (ip), vehicle: saline 101 % of control

ClCC1CNC(c2ccccc2)O1 (stereo unspecified)
inactive: dose: 12.5 mg/kg/injection, schedule: Q04DX003 (ip), vehicle: saline with Tween-80 96 % of control | dose: 25.0 mg/kg/injection, schedule: Q04DX003 (ip), vehicle: saline with Tween-80 101 % of control | dose: 50.0 mg/kg/injection, schedule: Q04DX003 (ip), vehicle: saline with Tween-80 98 % of control | dose: 100.0 mg/kg/injection, schedule: Q01DX001 (ip), vehicle: carboxymethylcellulose (CMC) 95 % of control | dose: 200.0 mg/kg/injection, schedule: Q01DX001 (ip), vehicle: carboxymethylcellulose (CMC) 93 % of control | dose: 400.0 mg/kg/injection, schedule: Q01DX001 (ip), vehicle: carboxymethylcellulose (CMC) 101 % of control

CN(C)Cc1ccccc1COC(=O)c1ccc(Br)cc1
inactive: [7] 98 % of control | [8] 105 % of control | dose: 200.0 mg/kg/injection, schedule: Q04DX002 (ip), vehicle: Klucel (hydroxypropylcellulose) (HPC) 94 % of control

CCCCC(C=O)(CCN1CCCC1)c1cccc2ccccc12 (stereo unspecified)
inactive: dose: 25.0 mg/kg/injection, schedule: Q04DX002 (ip), vehicle: saline with Tween-80 88 % of control | dose: 50.0 mg/kg/injection, schedule: Q04DX002 (ip), vehicle: saline with Tween-80 100 % of control | dose: 100.0 mg/kg/injection, schedule: Q04DX002 (ip), vehicle: saline with Tween-80 103 % of control

CC1=C(Cl)C(=O)C(C)=C(Cl)C1=O
inactive: dose: 10.0 mg/kg/injection, schedule: Q01DX001 (ip), vehicle: saline 90 % of control | dose: 20.0 mg/kg/injection, schedule: Q01DX001 (ip), vehicle: saline 92 % of control | dose: 40.0 mg/kg/injection, schedule: Q01DX001 (ip), vehicle: saline 108 % of control

NC(=O)Cc1ccccc1N
inactive: [9] 98 % of control | [10] 114 % of control | [11] 98 % of control

CN(C)Cc1cc(Cl)ccc1O
inactive: [8] 100 % of control

Nc1[nH]nc2nc(-c3ccccc3)cnc12
inactive: dose: 25.0 mg/kg/injection, schedule: Q01DX009 (ip), vehicle: saline with Tween-80 121 % of control | dose: 50.0 mg/kg/injection, schedule: Q01DX009 (ip), vehicle: saline with Tween-80 110 % of control | [12] 95 % of control and 102 % of control | dose: 100.0 mg/kg/injection, schedule: Q04DX003 (ip), vehicle: saline with Tween-80 94 % of control | dose: 200.0 mg/kg/injection, schedule: Q04DX003 (ip), vehicle: saline with Tween-80 92 % of control | dose: 400.0 mg/kg/injection, schedule: Q04DX003 (ip), vehicle: saline with Tween-80 92 % of control

Cc1cccc2cccnc12
inactive: dose: 100.0 mg/kg/injection, schedule: Q01DX001 (ip), vehicle: other 104 % of control | dose: 200.0 mg/kg/injection, schedule: Q01DX001 (ip), vehicle: other 106 % of control | dose: 400.0 mg/kg/injection, schedule: Q01DX001 (ip), vehicle: other 98 % of control

COc1ccccc1CN1CCCN(Cc2ccccc2OC)C1c1cc(Cl)ccc1O
inactive: [13] 101 % of control | [14] 95 % of control | [15] 97 % of control | [16] 101 % of control

Cc1[nH]c2ccccc2c1C(=O)Cc1ccc(Cl)cc1Cl
inactive: [13] 98 % of control | [14] 101 % of control | [15] 101 % of control | [16] 95 % of control

O=C(Nc1ccc(F)c(Cl)c1)OCC1CCCO1 (stereo unspecified)
inactive: dose: 6.25 mg/kg/injection, schedule: Q01DX009 (ip), vehicle: Klucel (hydroxypropylcellulose) (HPC) 92 % of control | dose: 12.5 mg/kg/injection, schedule: Q01DX009 (ip), vehicle: Klucel (hydroxypropylcellulose) (HPC) 89 % of control | [2] 94 % of control | [4] 89 % of control

Nc1ncnc2c1ncn2C1C=CC(CO)O1 (stereo unspecified)
inactive: [14] 102 % of control | [15] 100 % of control | [16] 102 % of control

O=C(COc1ccc(Cl)cc1C(=O)O)Nc1cccc(NC(=O)Nc2cc(S(=O)(=O)F)ccc2Cl)c1
inactive: [9] 94 % of control | [10] 88 % of control | [11] 91 % of control

O=C1CCC(c2ccccc2)=NN1
inactive: [2] 93 % of control | [4] 95 % of control | [6] 106 % of control

Cc1cccc(C=O)c1
inactive: [14] 102 % of control | [15] 96 % of control | [16] 96 % of control

Oc1ccc(O)c2[nH]c(-c3ccc(Cl)cc3)cc12
inactive: dose: 25.0 mg/kg/injection, schedule: Q04DX002 (ip), vehicle: Klucel (hydroxypropylcellulose) (HPC) 94 % of control | [7] 100 % of control | [8] 100 % of control

O=C1CCCNc2ccccc21
inactive: [12] 98 % of control | [2] 93 % of control | dose: 200.0 mg/kg/injection, schedule: Q01DX009 (ip), vehicle: saline with Tween-80 110 % of control | [4] 106 % of control | dose: 400.0 mg/kg/injection, schedule: Q01DX009 (ip), vehicle: saline with Tween-80 93 % of control | [6] 98 % of control

CN(C)c1ccc(C=O)cc1[N+](=O)[O-]
inactive: dose: 50.0 mg/kg/injection, schedule: Q01DX009 (ip), vehicle: Klucel (hydroxypropylcellulose) (HPC) 94 % of control | [1] 97 % of control | [2] 97 % of control | [3] 100 % of control | [4] 92 % of control | [6] 100 % of control
